# Patent publication US7220725B2, “Pharmaceutical composition comprising an analgesic peptide and method for treating pain” (S.I.S. Shulov Institute for Science Ltd., priority 2000, dated 2007)
# Square brackets hold non-standard residues; d marks the D form. * marks the point of attachment. pGlu = O=C1CC[C@@H](C(=O)O)N1; Octanoyl = CCCCCCCC(=O)*
# System: HCl induced pain
# Assay: Analgesic assay: licks after subcutaneous HCl injection following topical ointment
# Assay type: in vivo, hamsters
# Protocol: In each test, a few tens of hamsters of similar weight and age were used. The hamsters were divided into groups according to the number of samples to be tested. Ointment (50% Lanolin and 50% Vaseline) containing the tested substance was applied to the animal's fur on the back region. The fur was not removed so as to ensure that no damage to the skin occurred. A control group of hamsters was treated with ointment without the fraction of the invention. Hamsters were treated by topical application for 6, 14, 21 or 28 consecutive days. The test for analgesity was conducted following the last application of the ointment. In an alternate protocol, analgesity was tested following a single application of the ointment.
# Subsequently to application of the ointment, the hamsters “clean” themselves by dispersing the ointment all over their body with their tongue and legs. Thus, some of the ointment is introduced into the oral cavity and possibly also into the intestine of the hamsters.
# In a typical test, a constant amount of ointment with or without an analgesic substance is applied to each animal for a predetermined period of one or more days. Following this period, pain is induced by a subcutaneous injection of 0.5 ml of 1N HCl/0.1 kg body weight in the femur region. The hamsters respond to the HCl injection by touching the area of injection with the tongue, this being called a “lick”. 20 minutes after injection the hamster is observed for 60 min and the number of “licks” are counted. The number of “licks” serves as a quantitative indication of the HCl induced pain.
# The analgesic effect is determined by comparing the mean number of “licks” in control animals to the number in treated animals. The significance of the difference was determined using t-test statistics.
# 0.6 mg of pENW, pENWK-C8 or pENWGAT (a dimer of pENW) were dissolved in 5 ml of DDW, mixed by an ultrasonic mixer for 2 minutes and then dissolved in […] of ointment. The final peptide concentration was 0.002 mg/gr.
# 6 applications were made over a period of 4 weeks. The test for analgesity was conducted 10 days following the last application of the ointment.
# Compositions at a concentration of 0.020 mg/g were prepared as in Example 1 containing the following active ingredients: pENW, pEEW, or pENTW or pENWT. 6 applications were made over a period of 5 weeks. The results are summarized below:
# A composition containing pENW—C8 at a concentration of 0.002 mg/g ointment was prepared as in Example 1. A single application was made to the animals, and analgesity was assayed 11, 23 and 48 days post-application. Ointment without an active substance was applied to the control animals.
# [1] = Example 1: 0.002 mg/gr in ointment, topical, 6 applications over 4 weeks, tested 10 days after last application, control 113.9
# [2] = Example 2: 0.020 mg/g in ointment, topical, 6 applications over 5 weeks, control 117
Substance,mean number of licks [1],mean number of licks [2],"mean number of licks (Example 3: 0.002 mg/g ointment, single application, 11 days post application, control 106)","mean number of licks (Example 3: 0.002 mg/g ointment, single application, 23 days post application, control 106)","mean number of licks (Example 3: 0.002 mg/g ointment, single application, 48 days post application, control 106)"
pGLU-ASN-TRP-LYS(octanoyl)-OH ([pGlu]NWK(Octanoyl)-OH; SMILES CCCCCCCC(=O)NCCCC[C@H](NC(=O)[C@H](Cc1c[nH]c2ccccc12)NC(=O)[C@H](CC(N)=O)NC(=O)[C@@H]1CCC(=O)N1)C(=O)O) [pENWK-C8],37.9,–,–,–,–
pGLU-ASN-TRP—OH [pENW],59.7,44,–,–,–
pGLU-GLU-TRP—OH [pEEW],–,35,–,–,–
pGlu-Asn-Trp-O-octyl [pENW—C8],–,–,66,35.7,62.4
